The results in this text go back to US20240091244A1, “PHARMACEUTICAL COMPOSITIONS COMPRISING PICROSIDE” (SAVA HEALTHCARE LIMITED, priority 2021, published 2024).

Series [1] deals with mice with cyclophosphamide induced neutropenia. The series is described as follows: Administration of Picroside I / Picroside II (injectable, subcutaneous) to mice with cyclophosphamide induced neutropenia. It is filed as in vivo, Swiss albino mice. The note with it: for changes in body weight / clinical signs of toxicity and mortality: 1 mg/mouse/day subcutaneous for 5 days; for Total leukocyte count on Day 10 as compared to Group 2 / neutrophil count on Day 10 as compared to Group 2 / % Neutrophil (day 10) / neutrophil count compared with Group 1 (Normal control): 1 mg/mouse/day subcutaneous; for Total leukocyte count on Day 10 as compared to Group 2 / neutrophil count on Day 10 as compared to Group 2 / % Neutrophil (day 10): day 5 to day 10; for % Neutrophil (day 10) / neutrophil count compared with Group 1 (Normal control): day 10; for neutrophil count compared with Group 1 (Normal control): P<0.01; for % Neutrophil (day 3): day 3 after cyclophosphamide 150 mg/kg ip, before treatment (baseline of the group); for reversal of cyclophosphamide induced neutropenia: injection. How it is done:
(§1) In-house bred Swiss albino mice were housed under standard laboratory conditions, such as, air-conditioned with adequate fresh air supply (air changes 12-15 per hour), room temperature of 21.1-23.2° C. and relative humidity of 55-69%, with 12 hours light and 12 hours dark cycle were strictly maintained in the experimental room. The mice were acclimatized for a minimum period of seven days to laboratory conditions.
(§2) The selected Swiss albino mice were randomized into four groups based on body weight, each group comprising of 6 mice. Group 2 and 3, 4 animals were treated with 150 mg/kg of cyclophosphamide through intraperitoneal route on Day 0 to initiate inducing neutropenia. On Day 3, the animals of group 2, 3 and 4, reflected the cyclophosphamide induced neutropenication when compared with Group 1 (Control) mice. On day 4, mice from Groups 2, 3 and 4 were again injected with a single dose of 100 mg/kg of cyclophosphamide. Total and differential count (neutrophils, lymphocytes, and monocytes) was recorded on day 3. The neutrophil count on day 3 was compared between groups using One-way ANOVA followed by Dunnett's test or student ‘t’ test. P<0.05 was considered statistically significant.
Cyclophosphamide related neutropenia was induced in mice subjects using method according to Example 6. Injectable composition was prepared using the method according to Example 5. The Picroside I composition was administered through subcutaneous route at a dose of 1 mg/mouse/day to the animals in Group 3 for 5 days respectively starting from day 5 ending at day 10. Picroside II composition was administered through subcutaneous route at a dose of 1 mg/mouse/day to the animals in Group 4 for 5 days respectively starting from day 5 ending at day 10. On day 10, again blood was collected to count the total leucocyte count and differential count (neutrophils, lymphocytes, and monocytes) manually. The neutrophil count on day 10 was compared between groups using One-way ANOVA followed by Dunnett's test or student ‘t’ test. P<0.05 was considered statistically significant.

The test system is the same in series [2]. Nature of the series: Administration of Picroside I (oral tablets) to mice with cyclophosphamide induced neutropenia. It is filed as in vivo, Swiss albino mice. The note with it: for Neutrophil (10^9/L) (day 10) / WBC (10^9/L) (day 10): day 5 to day 10; for Neutrophil (10^9/L) (day 3) / WBC (10^9/L) (day 3): day 3, before treatment (baseline). How it is done: as §1, §2
Cyclophosphamide related neutropenia was induced in mice subjects using method according to Example 6. Oral tablet composition was prepared using the method according to Example 4. The Picroside I composition was administered orally at a dose of 2 mg/mouse/day (2 tablets) to the animals in Group 1 and Group 2 for 5 days respectively starting from day 5 ending at day 10. For a comparative study, oral composition was administered using distilled water and PEG. Specifically, oral tablets were administered in distilled water to mice in Group 1 and in 5% PEG to mice in Group 2. On day 10, again blood was collected to count the total leucocyte count and differential count (neutrophils, lymphocytes, and monocytes) manually. The neutrophil count on day 10 was compared between groups using One-way ANOVA followed by Dunnett's test or student ‘t’ test. P<0.05 was considered statistically significant.

The test system is the same in series [3]. The series is described as follows: Comparative administration of Picroside I and G-CSF to mice with cyclophosphamide induced neutropenia. It is filed as in vivo, Swiss albino mice. Particulars: for % Neutrophil (day 0): day 0, before cyclophosphamide (baseline of the group); for % Neutrophil (day 3): day 3 after cyclophosphamide, before treatment; for % Neutrophil (day 10): Picroside I 1 mg/mouse/day, G-CSF 2 μg/mouse/day. How it is done:
as §1, §2
(§3) Cyclophosphamide related neutropenia was induced in mice subjects using method according to Example 6. Group 1 was marked vehicle control group, Group 2 was marked cyclophosphamide control, Group 3 was marked treated with Picroside I and Group 4 was marked treated with G-CSF treated. The Picroside I composition was administered through subcutaneous route at a dose of 1 mg/mouse/day to the animals in Group 3 for 5 days respectively starting from day 5 ending at day 10. The G-CSF composition was administered through subcutaneous route at a dose of 2 μg/mouse/day to the animals in Group 4 for 5 days respectively starting from day 5 ending at day 10. On day 10, again blood was collected to count the total leucocyte count and differential count (neutrophils, lymphocytes, and monocytes) manually. The neutrophil count on day 10 was compared between groups using One-way ANOVA followed by Dunnett's test or student ‘t’ test. P<0.05 was considered statistically significant. Additionally, hepatotoxicity was observed by investigating ALT and AST levels.

Series [4] deals with cyclophosphamide induced hepatotoxicity. Nature of the series: Effect in cyclophosphamide induced hepatotoxicity (AST and ALT levels). It is filed as in vivo, Swiss albino mice. Particulars: for ALT (IU/L) / AST (IU/L): day 5 to day 10, Picroside I 1 mg/mouse/day, G-CSF 2 μg/mouse/day, cyclophosphamide treated mice. As to the method:
as §2, §3

Series [5] is described as follows: Stability analysis of injectable composition of Picroside I and 2.5% PEG400 by HPLC quantitative analysis. The note with it: 1 mg Picroside I in 2.5% PEG400; for % Result (1 month): HPLC 220 nm. It is filed as physicochemical. As to the method: The purified Picroside I prepared by the methods according to Example 1, 2, and 3 was used for the said injection composition. Injection preparation was prepared by dissolving 1 mg Picroside I in solvent, controlling pH to about 4-land then filling in ampules followed by subsequent sterilizing by conventional injection preparation method. For comparative compositions, different solvents such as methanol, 2.5% PEG400, 5% PEG400, 5% DMSO, 5% ethyl lactate, and 1.4% propylene glycol were used for Picroside I solubility.
The solutions were kept for sonication for 15 min and left the solutions stand at room temperature for 1 hour. HPLC was used for quantitative analysis.
Three compositions of 1 mg Picroside I and 2.5% PEG400 were kept for sonication for 15 min and left to stand at room temperature (RT), 2-8° C. and 40° C., 75% RH for 1 month. and injected (20 μL) into HPLC at 220 nm for quantitative analysis.

[6] abbreviates: 2 mg/mouse/day oral, in distilled water (Group 1) and in 5% PEG (Group 2).
The mark [7] stands for this setting: Group 1, 2 mg/mouse/day oral (2 tablets) in distilled water.
Setting [8] is: Group 1, tablets in distilled water.
Where [9] appears, read: Group 2, 2 mg/mouse/day oral (2 tablets) in 5% PEG.
Setting [10] is: Picroside I 1 mg/mouse/day vs G-CSF 2 μg/mouse/day, subcutaneous.
The mark [11] stands for this setting: 1 mg/mouse/day subcutaneous, p<0.001.

In the case of `COc1cc(C(=O)O[C@H]2[C@@H]3C=CO[C@@H](O[C@@H]4O[C@H](CO)[C@@H](O)[C@H](O)[C@H]4O)[C@@H]3[C@@]3(CO)O[C@@H]23)ccc1O` [Picroside II], in series [1], the “changes in body weight” value is reported as “no treatment related changes in body weight”; the “clinical signs of toxicity and mortality” value was “no clinical signs of toxicity and mortality”; the “Total leukocyte count on Day 10 as compared to Group 2” value was “significant increase”; the “neutrophil count on Day 10 as compared to Group 2” value is given as “significant increase”. In series [1], the “% Neutrophil (day 10)” value stood at 32.83%, the “neutrophil count compared with Group 1 (Normal control)” value was “increased neutrophil count significantly”, the “% Neutrophil (day 3)” value is given as 21.83% and the “reversal of cyclophosphamide induced neutropenia” value (“reversal” below) is on record as “significantly reverses”.
As for `O=C(/C=C/c1ccccc1)OC[C@H]1O[C@@H](O[C@@H]2OC=C[C@H]3[C@H](O)[C@@H]4O[C@]4(CO)[C@@H]23)[C@H](O)[C@@H](O)[C@@H]1O` [Picroside I], in series [1], the “changes in body weight” value was “no treatment related changes in body weight”; the “clinical signs of toxicity and mortality” value is “no clinical signs of toxicity and mortality”; the “Total leukocyte count on Day 10 as compared to Group 2” value is listed as “significant increase”; the “neutrophil count on Day 10 as compared to Group 2” value is reported as “significant increase”. In series [1], the “% Neutrophil (day 10)” value was 32.67%, the “neutrophil count compared with Group 1 (Normal control)” value is given as “increased neutrophil count significantly”, the “% Neutrophil (day 3)” value stood at 20.83% and the “reversal” value was “significantly reverses”. In addition, in series [2] (2 mg/mouse/day oral for 5 days), the “changes in body weight” value was “no treatment related changes in body weight”; the “clinical signs of toxicity and mortality” value was “no clinical signs of toxicity and mortality”. In series [2] (setting [6]), the “Total leukocyte count on Day 10 as compared that on Day 3” value is recorded as “significant increase” and the “neutrophil count on Day 10 as compared that on Day 3” value was “significant increase”. Besides, in series [2] (setting [7]), the “Neutrophil (10^9/L) (day 10)” value is 1.58 10^9/L and the “WBC (10^9/L) (day 10)” value was 9.5 10^9/L. Further, in series [2] (setting [8]), the “Neutrophil (10^9/L) (day 3)” value is 0.38 10^9/L and the “WBC (10^9/L) (day 3)” value is 1.75 10^9/L. In addition, in series [2] (setting [9]), the “Neutrophil (10^9/L) (day 10)” value is on record as 1.03 10^9/L and the “WBC (10^9/L) (day 10)” value is listed as 8.9 10^9/L. In series [2] (Group 2, tablets in 5% PEG), the “Neutrophil (10^9/L) (day 3)” value is reported as 0.31 10^9/L and the “WBC (10^9/L) (day 3)” value is reported as 2.01 10^9/L. Besides, the “reversal” value in series [2] (oral tablets) is given as “significantly reverses”. For the same molecule, in series [3] (1 mg/mouse/day subcutaneous, day 5 to day 10), the “effect on cyclophosphamide induced decrease in % neutrophil” value is reported as “alleviation”. Also, in series [3] (setting [10]), the “observed changes in % neutrophil relative to G-CSF treatment” value is given as “comparable to that of G-CSF treatment”. For the same molecule, in series [3], the “% Neutrophil (day 0)” value was 46.00% and the “% Neutrophil (day 3)” value was 6.600%. Moreover, in series [3] (subcutaneous, day 5 to day 10), the “% Neutrophil (day 10)” value is given as 23.90%. In series [4] (setting [11]), the “ALT levels when compared to the Group 2” value was “significant reversal” and the “AST levels when compared to the Group 2” value was “significant reversal”. For the same molecule, the “decrease in AST and ALT relative to G-CSF treatment” value in series [4] (setting [10]) was “comparable”. For the same molecule, in series [4] (subcutaneous), the “ALT (IU/L)” value is 37.16 IU/L and the “AST (IU/L)” value was 50.32 IU/L. Moreover, the “stability over a period of 1 month” value in series [5] (RT, 2-8° C. and 40° C., 75% RH) was “excellent stability”. Further, the “% Result (1 month)” value in series [5] (stored at 2-8° C. for 1 month) amounted to 96.59%. Further, in series [5] (stored at 40° C., 75% RH for 1 month), the “% Result (1 month)” value is 86.89%. The “% Result (1 month)” value in series [5] (stored at RT for 1 month) is listed as 102.33%.

B1: G-CSF: Granulocyte Colony Stimulating Factor, FDA approved drug for treating severe neutropenia; comparator (protein, UniProt P09919 31-207, looked up)
Granulocyte …: TPLGPASSLPQSFLLKCLEQVRKIQGDGAALQEKLVSECATYKLCHPEELVLLGHSLGIPWAPLSSCPSQALQLAGCLSQLHSGLFLYQGLLQALEGISPELGPTLDTLQLDVADFATTIWQQMEELGMAPALQPTQGAMPAFASAFQRRAGGVLVASHLQSFLEVSYRVLRHLAQP
Take B1: in series [3], the “% Neutrophil (day 0)” value is given as 46.10% and the “% Neutrophil (day 3)” value came out at 6.700%. The “% Neutrophil (day 10)” value in series [3] (subcutaneous, day 5 to day 10) worked out at 28.20%. Moreover, in series [4] (subcutaneous), the “ALT (IU/L)” value worked out at 36.17 IU/L and the “AST (IU/L)” value is given as 50.54 IU/L.
